Test results from PMC7316778 (Nature Communications, 2020).
Where “and” joins values, the source holds several entries; their conditions need not be identical. Equal values may be shown once.

Columns and labels:
FER^WT = FER^WT (Homo sapiens, UniProt P16591); test: In vitro TR-FRET kinase assay
FES^WT = molecular target: T1, FES^WT (Homo sapiens, UniProt P07332); test: In vitro TR-FRET kinase assay; type: biochemical; details: for Residual activity (%): FES WT, mean, n=3; for IC50: TR-FRET assay, 5 µM ATP, n = 3, read-out: pIC50 FES^WT (converted)
T1 construct: human FES cDNA encoding residues 448–822 or human FER cDNA encoding residues 448–820 was amplified by PCR; made in house; host or cells: E. coli BL21(DE3), co-expressing YopH phosphatase
Description: All measurements were performed in triplicate.

[1] = tested on: FES^S700C HL-60 neutrophils; test: Phagocytosis assay with GFP-expressing E. coli; type: cell-based, human; details: Figure 7i; replicates
Description: HL-60 cells were differentiated to neutrophils as described above. Cells were counted and centrifuged (200g, 5 min), followed by resuspension in growth medium without antibiotics. Cells were incubated with vehicle or inhibitor (from 1000x concentrated stocks in DMSO) for 1 h at 37 °C prior to infection (1×10^6 cells in 900 µL in 12-well plate). Meanwhile, E. coli B834(DE3) constitutively expressing GFP^A206K were grown in LB medium to an OD600 of 0.4–1.0, after which bacteria were centrifuged (2000g, 5 min), washed and resuspended in PBS to appropriate density. Neutrophils were infected by addition of bacteria at multiplicity of infection (MOI) of 30 unless stated otherwise. Cells were then incubated for 1 h at 37 °C unless stated otherwise, after which cells were resuspended and transferred to Eppendorf tubes, washed in FACS buffer (1 mL, 500g, 3 min) and fixed in 1% PFA in PBS (15 min, 4 °C, in the dark). Samples were further processed as described above.
Events (generally 20,000 per condition) were gated by forward and side scatter (cells), side scatter area (singlets) and the percentage of GFP-positive cells and GFP mean fluorescence intensity (MFI) were determined based on background fluorescence for non-infected cells. The GREEN-B channel (525/30 filter) was used to detect GFP.

Chain of FER^WT (P16591 448-820): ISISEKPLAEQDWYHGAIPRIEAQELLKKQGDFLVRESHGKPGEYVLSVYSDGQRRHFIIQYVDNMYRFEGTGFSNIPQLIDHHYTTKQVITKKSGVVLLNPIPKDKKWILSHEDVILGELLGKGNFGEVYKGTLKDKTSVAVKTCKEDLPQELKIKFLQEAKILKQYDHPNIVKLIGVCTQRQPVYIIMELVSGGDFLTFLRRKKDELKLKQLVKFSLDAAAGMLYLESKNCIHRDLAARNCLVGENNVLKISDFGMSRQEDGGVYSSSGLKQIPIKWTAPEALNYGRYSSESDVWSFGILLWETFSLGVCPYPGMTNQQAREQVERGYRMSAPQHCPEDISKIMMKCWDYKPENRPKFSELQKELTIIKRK
T1 sequence (P07332 448-822): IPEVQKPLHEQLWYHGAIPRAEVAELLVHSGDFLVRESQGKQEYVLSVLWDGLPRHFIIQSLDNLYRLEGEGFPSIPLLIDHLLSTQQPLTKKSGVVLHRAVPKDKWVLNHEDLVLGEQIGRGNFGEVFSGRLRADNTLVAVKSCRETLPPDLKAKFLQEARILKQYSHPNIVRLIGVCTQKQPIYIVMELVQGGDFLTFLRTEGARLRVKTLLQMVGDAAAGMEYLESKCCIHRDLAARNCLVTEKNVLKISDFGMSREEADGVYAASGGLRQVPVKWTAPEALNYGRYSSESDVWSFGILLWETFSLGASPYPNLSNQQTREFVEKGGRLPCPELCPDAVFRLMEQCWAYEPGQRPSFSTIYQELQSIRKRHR

Structure (SMILES) | Residual activity (%) WT Mean (FER^WT; log[inhibitor] (M) -5) | Residual activity (%) WT Mean (FER^WT; log[inhibitor] (M) -5.52288) | Residual activity (%) WT Mean (FER^WT; log[inhibitor] (M) -6) | Residual activity (%) WT Mean (FER^WT; log[inhibitor] (M) -6.52288) | Residual activity (%) WT Mean (FER^WT; log[inhibitor] (M) -7) | Residual activity (%) WT Mean (FER^WT; log[inhibitor] (M) -7.52288) | Residual activity (%) WT Mean (FER^WT; log[inhibitor] (M) -8) | Residual activity (%) WT Mean (FER^WT; log[inhibitor] (M) -8.52288) | Residual activity (%) WT Mean (FER^WT; log[inhibitor] (M) -9) | Residual activity (%) WT Mean (FER^WT; log[inhibitor] (M) -9.52288) | Residual activity (%) WT Mean (FER^WT; log[inhibitor] (M) -10) | Residual activity (%) WT Mean (FER^WT; log[inhibitor] (M) -10.5229) | Residual activity (%) WT Mean (FER^WT; log[inhibitor] (M) -11) | other results
CCC(=O)Nc1ccccc1Nc1nc(Nc2ccccc2OC)ncc1Cl [Supplementary Figure 8e] | 15.6173% | 11.558% | 19.5081% | 74.3812% | 96.1324% | 93.3601% | 104.761% | 92.7732% | 106.725% | 98.2336% | 113.972% | 97.8463% | 108.607% | –
COc1ccccc1Nc1ncc(Cl)c(Nc2ccccc2S(=O)(=O)C(C)C)n1 [Supplementary Figure 1c] | – | – | – | – | – | – | – | – | – | – | – | – | – | Residual activity (%) (FES^WT; log[inhibitor] (M) = -5): 3.135%; Residual activity (%) (FES^WT; log[inhibitor] (M) = -5.52288): 1.274%; Residual activity (%) (FES^WT; log[inhibitor] (M) = -6): 0.9673%; Residual activity (%) (FES^WT; log[inhibitor] (M) = -6.52288): 3.912%; Residual activity (%) (FES^WT; log[inhibitor] (M) = -7): 25.313%; Residual activity (%) (FES^WT; log[inhibitor] (M) = -7.52288): 69.4661%; Residual activity (%) (FES^WT; log[inhibitor] (M) = -8): 80.7219%; Residual activity (%) (FES^WT; log[inhibitor] (M) = -8.52288): 93.5112%; Residual activity (%) (FES^WT; log[inhibitor] (M) = -9): 92.1668%; Residual activity (%) (FES^WT; log[inhibitor] (M) = -9.52288): 93.0906%; Residual activity (%) (FES^WT; log[inhibitor] (M) = -10): 84.5762%; Residual activity (%) (FES^WT; log[inhibitor] (M) = -10.5229): 85.1733%; Residual activity (%) (FES^WT; log[inhibitor] (M) = -11): 101.85%
C=CC(=O)Nc1ccccc1Nc1nc(Nc2ccccc2OC)ncc1Cl [Compound 4] | – | – | – | – | – | – | – | – | – | – | – | – | – | IC50 (FES^WT): 2000 nM; IC50 (FER^WT): 200 nM
C#CCOc1ccc(Nc2ncc(Cl)c(Nc3ccccc3NC(=O)C=C)n2)c(OC)c1 [Supplementary Figure 8f] | 5.2329% | 3.792% | 14.1153% | 25.7365% | 62.4124% | 74.9371% | 97.3541% | 92.3988% | 107.069% | 97.7799% | 105.81% | 90.1497% | 111.768% | –
COc1ccc2c(c1)CC[C@@H]1[C@@H]2CC[C@]2(C)[C@@H](NCCCCCCN3C(=O)C=CC3=O)CC[C@@H]12 [Compound U-73122, U-73122] | – | – | – | – | – | – | – | – | – | – | – | – | – | Phagocytic index [1]: 64.8265 and 82.4025 and 81.0921 and 67.7147 and 64.5235
COc1ccccc1Nc1ncc(Cl)c(Nc2ccccc2S(=O)(=O)C(C)C)n1 [Compound 2] | – | – | – | – | – | – | – | – | – | – | – | – | – | IC50 (FES^WT): 50.1 nM; IC50 (FER^WT): 5.01 nM
C=CC(=O)Nc1ccccc1Nc1nc(Nc2ccccc2OC)ncc1Cl [Supplementary Figure 8d] | 4.829% | 6.417% | 19.305% | 38.3519% | 71.19% | 87.6084% | 99.295% | 98.6881% | 106.616% | 102.334% | 107.184% | 102.376% | 116.944% | –
